Results published in US9376449B2, “Indole carboxamide derivative” (Astellas Pharma Inc., priority 2012, dated 2016).

Experiments:
[1] = tested on: isolated urethra; assay: Isolated urethra contractile action; parameters: species or system rat; conditions: for activation at 1 µM: test compound at 1 μM, contractile response by 10 μM phenylephrine as 100%, SD female rat urethra, read-out: Isolated urethra contraction (%)
Experimental: Test Example 2 Isolated Urethra Contractile Action
(1) Evaluation Test on Urethra Contractile Action of Test Compound Using Isolated Urethra
The urethra was isolated from an SD female rat having a body weight of 100 to 500 g. The isolated urethra was incised longitudinally to give a rectangular strip specimen having a width of about 3 mm, which was suspended in the circular muscle direction in 10 mL of a tissue bath filled with a Krebs-Henseleit solution (pH 7.4). The Krebs-Henseleit solution was bubbled with 95% O2 and 5% CO2, and kept at 37° C. The resting tension was set to 0.5 g to record the isometric contraction. After the resting tension was stabilized, contraction was elicited by the addition of 10 μM phenylephrine. After washing and stabilizing, the test compound was added cumulatively to a final concentration of −12 to −5 log M to measure a contractile response. By taking the contractile response by 10 μM phenylephrine as 100%, the ratio of the contractile response in the concentration of the test compound at 1 μM was calculated.
(§1) Ex represents Example No. of the test compound.

[2] = biological target: T1, human MT2 receptor (Homo sapiens, UniProt P49286); assay: Activation of human MT2 receptor in receptor-expressing HEK293 cells (intracellular Ca2+, FLIPR); format: cell-based; conditions: for Emax: HEK293, maximum reaction by ramelteon taken as 100%, solvent only 0%; for EC50: HEK293 cells stably expressing human MT2 and Gq/i chimeric G-protein, intracellular Ca2+ by FLIPR
T1 sequence (P49286 1-362): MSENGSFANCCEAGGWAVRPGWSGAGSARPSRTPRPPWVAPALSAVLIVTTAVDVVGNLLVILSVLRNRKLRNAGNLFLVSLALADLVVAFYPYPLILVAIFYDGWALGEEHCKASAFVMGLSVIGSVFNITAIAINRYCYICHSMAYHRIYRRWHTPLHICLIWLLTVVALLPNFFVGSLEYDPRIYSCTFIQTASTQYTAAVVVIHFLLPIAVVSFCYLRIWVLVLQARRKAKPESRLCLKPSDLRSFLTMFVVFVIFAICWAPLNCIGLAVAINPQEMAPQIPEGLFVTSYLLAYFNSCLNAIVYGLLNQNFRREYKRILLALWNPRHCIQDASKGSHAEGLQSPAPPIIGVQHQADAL
Experimental: (1) Isolation of Human MT1 and MT2 Receptor and Construction of Expression Vector
A human MT1 receptor gene (GenBank Accession No.: NM_005958.3) and a human MT2 receptor gene (GenBank Accession No.: NM_005959.3) were each introduced into an expression vector pCDNA3.1/Zeo (Invitrogen, Inc.).
(2) Construction of Cells Stably Expressing Human MT1 and Human MT2 Receptor
The introduction was carried out according to the attached instructions, using a Lipofectoamine (registered trademark) 2000 Reagent (Invitrogen, Inc.). Zeocin and hygromycin were used as a resistant drug, and the cell was incubated for 15 days at 0.02 mg/mL and 0.05 mg/mL, respectively, thereby acquiring drug-resistant clones.
(3) Measurement of Intracellular Ca^2+ Concentration by FLIPR (Registered Trademark)
The respective stably expressing cells were dispensed into 96-well poly-D-lysine-coated plates (Falcon Co.) to 40,000 cells/well the day before the experiment, and incubated overnight in a DMEM (Invitrogen, Inc.) medium including 10% FBS at 37° C. and 5% CO2. The medium was replaced with a loading buffer (washing solution (Hank's balanced salt solution (HBSS), 20 mM HEPES-NaOH, 2.5 mM probenecid) including Fluo-4AM (Dojindo Co.) at 4 μM), and incubated for 1 hour at 37° C. and 5% CO2. Thereafter, the cells were washed with a plate washer (ELx405, BIO-TEK Instrument, Inc.) set with the washing solution, and set in an intracellular Ca^2+ concentration measuring systems (FLIPR (registered trademark), Molecular Device Co.). The test compound was dissolved in the washing solution in advance, diluted to a final concentration of −12 to −5 log M, set in a FLIPR (registered trademark) device together with the cells, and added to the cells in the device. At this time, a change in the intracellular Ca^2+ concentrations was measured.
as §1

[3] = tested on: urethral pressure; assay: Effect of test compound on urethral pressure in anesthetized rats; format: in vivo, rat; conditions: for Increment value in the urethra pressures (mmHg): 0.1 mg/kg intravenously, urethane-anesthetized SD female rats; for urethra pressure increasing action: dose of 0.1 mg/kg
Text: Test Example 3 Test to Evaluate Effect of Test Compound on Urethral Pressure
It has been reported that an increase in the urethra pressure is useful for the treatment of urinary incontinence, particularly stress urinary incontinence (for example, Drugs, 64, 14, 1503-1516 (2004)). In order to confirm whether the compound of the present invention increases the urethra pressure and thus is useful for the treatment of urinary incontinence, particularly stress urinary incontinence, the following tests were carried out.
SD female rats were anesthetized with urethane and subjected to laparotomy. Then, the bladder apex was incised and a catheter was inserted from the bladder apex. Further, the catheter tip was ligated and fixed to be located in the proximal urethra portion. The catheter was connected to a pressure transducer and an infusion pump. Further, a catheter for administrating the compound was fitted into the femoral vein. Physiological saline was continuously infused into the urethra and the perfusion pressure in the urethra was measured. After the urethral pressure was stabilized, the test compound that had been dissolved in physiological saline, or physiological saline including 5% dimethylacetamide and 0.5% Cremophor was administered intravenously at 0.1 mg/kg, and a change in urethral pressures was measured.
Further, the results of administering an active metabolite of midodrine (ST-1059: purchased from CHEMIZON) (J. Urology, 118, 980-982 (1977)) which is an α1 adrenoceptor agonist and has an effect on stress urinary incontinence in rat doses (0.01 mg/kg) presumed to correspond to the clinical doses are referenced and shown in the Tables below. The increment value in the urethra pressures of ramelteon and the Example compounds of the present invention at the time of administration are shown in Table 4. Ex represents Example No. of the test compound.

| Emax [2] [%] | EC50 [2] [nM] | Compound | activation at 1 µM [1] [%] | Increment value in the urethra pressures (mmHg) [3] [mmHg] | urethra pressure increasing action ([3]; in words) | urethra contractile action ([1]; isolated rat urethra, in words) | increment value in the urethra pressures compared with ST-1059 ([3]; 0.1 mg/kg i.v. versus ST-1059 0.01 mg/kg, in words) |
| --- | --- | --- | --- | --- | --- | --- | --- |
| 94 | 58 | CNC(=O)c1[nH]c2cc(F)c(OC)cc2c1CCNC(C)=O [Ex 17] | 132 | 9.0 ± 1.0 | good urethra pressure increasing action |  |  |
| 100 | 1.1 | CCC(=O)NCC[C@@H]1CCc2ccc3c(c21)CCO3 [Ramelteon, reference compound] | 242 | 11.1 ± 1.7 |  | good urethra contractile action | equal to or more than that of ST-1059 |
| 109 | 28 | CNC(=O)c1[nH]c2ccc(OC)cc2c1CCNC(=O)C(F)F [Ex 2, 3-{2-[(difluoroacetyl)amino]ethyl}-5-methoxy-N-methyl-1H-indole-2-carboxamide] | 167 | 10.6 ± 3.5 | good urethra pressure increasing action |  |  |
